Measured values: patent US20220265700A1, “METHODS TO PREVENT, INHIBIT OR TREAT INTERVERTEBRAL DISC DEGENERATION” (University of Iowa Research Foundation, priority 2021, published 2022)
Read-outs that look alike come from different tables or passages of the source.

What was measured:
nucleus pulposus cells [1] = conditions: for cell viability: normalized by control
nucleus pulposus tissues = test: DHE staining, ex vivo organ culture of transversely cut intervertebral discs; format: cell-based, rabbit; conditions: 10 mM NAC or […] amobarbital for 24 h after cutting
ERK = test: Immunofluorescence staining of phosphorylated ERK; format: cell-based, rabbit
SOD2 and Nrf2 = SOD2 and Nrf2 IHC staining of tBHP-exposed IVDs; format: cell-based, rabbit; conditions: 100 μM tBHP 30 minutes, then 10 mM NAC 24 hours
nucleus pulposus (NP) = test: DHE staining of IVDs exposed to 100 μM tBHP; format: cell-based, rabbit; conditions: 100 μM tBHP 30 minutes, then 10 mM NAC 24 hours
Nrf2 [2] = test: Nrf2 staining, ex vivo organ culture of transversely cut intervertebral discs; format: cell-based, rabbit; conditions: 10 mM NAC or […] amobarbital for 24 h after cutting
p38 = test: Immunofluorescence staining of phosphorylated p38; format: cell-based, rabbit
JNK = test: Immunofluorescence staining of phosphorylated JNK; format: cell-based, rabbit
NP cells = test: TUNEL assay, ex vivo IVD puncture model; format: cell-based, rabbit; conditions: 7 days; Amo in hydrogel after disc puncture
Description: Overall study design is illustrated in FIG. 15A. A total of 36 rabbit thoracic and lumbar motion segments (T11/L2) including two vertebral bodies and one IVD were obtained from New Zealand White (NZW) rabbit cadavers (approximately 10-months old) without radiographic evidence of trauma by X-ray. Under sterile conditions, the segments were dissected by removing the posterior elements and soft tissues. The discs were punctured using a 20-gauge needle with 3 mm-depth, and the needle was held in place for 5 seconds. Discal injury was confirmed by herniated nucleus pulposus (NP) through the needle hole. After the puncture, 5 μl hydrogel (17% F-127/0.425% HA) with or without 2.5 mM Amo was injected into the NP using a 30-gauge Hamilton syringe with a stopper (Thermo Fisher Scientific, Waltham, Mass., USA). […]
Apoptotic cells in the NP were detected using a terminal deoxynucleotidyl transferase dUTP nick end labelling (TUNEL) assay (Abcam, Cambridge, Mass., USA) according to the manufacturer's instructions. […] Then, the sections were labeled with terminal transferase (TdT) enzyme for 1.5 h, detected with blocking buffer for 30 min, developed with working 3,3′-diaminobenzidine (DAB) solution for 15 min, and counterstained with methyl green for 1.5 min. After scanning images, the number of positive cells in each tissue was counted and normalized by the data from the 2-days intact group.

[3] = Amo stability in HA hydrogel according to USP guidelines; format: physicochemical; conditions: mixed with Gel-One HA hydrogel, data not shown
Description: Amo is primarily applied as a sedative-hypnotic to treat sleep disorder and as a preanesthetic agent.

nucleus pulposus cells [4] = test: Mitochondrial ROS production, MitoSOX Red; format: cell-based, rabbit
Nrf2 [5] = test: Nrf2 staining in NP cells under tBHP-induced oxidative stress; conditions: pre-treated with […] amobarbital 2 h, then 50 μM tBHP 1 h
rabbit NP cells = format: cell-based; conditions: exposed to 100 μM tBHP
nucleus pulposus cells [6] = conditions: 100 μM tBHP exposure
[7] = system: rat nucleus pulposus cells; conditions: 100 μM tBHP for 24 h (2019 report); cited from earlier work
[8] = system: human nucleus pulposus cells; conditions: 400 μM tBHP for 6 h (Xu et al. 2019); cited from earlier work
nucleus pulposus cells [9] = test: Mitochondrial membrane potential, JC-1 assay; format: cell-based, rabbit; conditions: 50 μM tBHP 1 h
[10] = 10 mM NAC, […] amobarbital or 20 μM inhibitor, 50 μM tBHP 1 h

In the case of `CC(=O)N[C@@H](CS)C(=O)O` [NAC, N-acetylcysteine], the “protective effect on cell viability (cell death)” value (nucleus pulposus cells [1]; 0.1-10 mM pre-treatment 2 h prior to 50 μM tBHP, until 24 h) is reported as “significantly prohibited the cell death”, the “concentration at which no cytotoxicity was exhibited” value (nucleus pulposus cells [1]; New Zealand White, rabbit, 2 h) is reported as “lower than 10 mM” and the “DHE dye oxidation (ROS) in injured NP tissues” value (nucleus pulposus tissues) is reported as “dramatically reduced dye oxidation”. For the same compound, the “phosphorylation of ERK vs. tBHP” value (ERK; [10]) was “inhibited the phosphorylation”, the “oxidative damage in NP cells by SOD2 and Nrf2 IHC staining” value (SOD2 and Nrf2) was “reduced oxidative damage” and the “DHE positive cells compared with non-treated control” value (nucleus pulposus (NP)) was “dramatic reduction”. The “Nrf2 expression in the cytosol compared with injured control group” value (Nrf2 [2]) was “approximately 6.8 times”, the “Nrf2 translocation to the nucleus after injury” value (Nrf2 [2]) was “prevented” and the “phosphorylation of p38 vs. tBHP” value (p38; [10]) was “inhibited the phosphorylation”. For the same compound, the “phosphorylation of JNK vs. tBHP” value (JNK; [10]) was “inhibited the phosphorylation”.

In the case of `COc1cccc(-c2cc(=O)c3ccccc3o2)c1N` [PD98059], the “phosphorylation of ERK vs. tBHP” value (ERK) is reported as “minimized the phosphorylation”.

In the case of `C[S+]([O-])c1ccc(-c2nc(-c3ccncc3)c(-c3ccc(F)cc3)[nH]2)cc1` (stereo not shown) [SB203580], the “phosphorylation of JNK vs. tBHP” value (JNK) is reported as “minimized the phosphorylation”.

In the case of `CCC1(CCC(C)C)C(=O)NC(=O)NC1=O` [amobarbital], the “TUNEL-positive (apoptotic) NP cells vs. HG” value (NP cells) is reported as “diminished number of cell apoptosis”, the “Amo stability in hydrogel” value [3] is reported as “stability in human biologic fluids and various conditions” and the “protective effect on cell viability (cell death)” value (nucleus pulposus cells [1]) is reported as “significantly prohibited the cell death”. For the same compound, the “phosphorylation of ERK vs. tBHP” value (ERK) was “inhibited the phosphorylation”, the “Nrf2 expression in the cytosol compared with injured control group” value (Nrf2 [2]) was roughly 7.8 times and the “Nrf2 translocation to the nucleus after injury” value (Nrf2 [2]) was “prevented”. The “phosphorylation of p38 vs. tBHP” value (p38) was “inhibited the phosphorylation”, the “MitoSOX-stained cells (imaging)” value (nucleus pulposus cells [4]) was “large decrease” and the “phosphorylation of JNK vs. tBHP” value (JNK) was “inhibited the phosphorylation”. The “Nrf2 expression in the cytosol of NP cells” value (Nrf2 [5]) was “close to control”.

With `CC(C)(C)OO` [tBHP, tert-butyl hydrogen peroxide] the cell viability (nucleus pulposus cells [1]; 25 μM tBHP, 1 h) was 90.8%, the cell viability (nucleus pulposus cells [1]; 50 μM tBHP, 1 h) was 77.1% and the “cell loss (viability)” value (nucleus pulposus cells [1]; 100-400 μM tBHP, 1 h) was 70.6-72.9%. For the same compound, the “basal oxygen consumption rate (OCR)” value (rabbit NP cells) was “increased”, the “phosphorylation of ERK vs. control” value (ERK; 50 μM tBHP 1 h) was “significantly phosphorylated” and the “apoptotic/necrotic cells after tBHP exposure” value (nucleus pulposus cells [6]) was “became apoptotic and/or necrotic cells”. For the same compound, the “cell apoptosis relative to control” value [7] was “approximately 7 times”, the viability [8] was 54.3% and the “rate of phosphorylated p38 compared with control” value (p38; 50 μM tBHP 1 h) was roughly 9.7 times. For the same compound, the “superoxide production (MitoSOX Red)” value (nucleus pulposus cells [4]; 25 μM tBHP) was “no superoxide production was observed”, the “ratio of J-aggregate form to monomeric form vs. control” value (nucleus pulposus cells [9]) was “significantly reduced” and the “rate of phosphorylated JNK compared with control” value (JNK; 50 μM tBHP 1 h) was “approximately 5.9 times”.
